Reference: PubChem BioAssay AID651883 (Southern Research Specialized Biocontainment Screening …, 2012)

System: VEEV Trinidad donkey virus titer reduction, cell culture
Assay: VEEV Trinidad donkey titer reduction, cell-based, Trinidad donkey strain (AID 651883)
Conditions: stronger effect = lower value

Compound | log virus titer change (at 5 µM) | log virus titer change (titer change, at 0.5 µM) | log virus titer change (titer change, at 1 µM) | log virus titer change (titer change, at 2 µM)
COc1ccc(NC(=O)c2cc([N+](=O)[O-])ccc2N=C2CN(C)CCN2C)cc1 | < -5.95 | < -5.95 | < -5.95 | < -5.95
CN1CCN(C)C(=Nc2ccc([N+](=O)[O-])cc2C(=O)Nc2ccccc2)C1 | < -5.95 | < -5.95 | < -5.95 | < -5.95
CCN1CCN(C)CC1=Nc1ccc([N+](=O)[O-])cc1C(=O)Nc1ccccc1 | < -5.95 | < -5.95 | < -5.95 | < -5.95
CCN1CCN(Cc2nc3ccc([N+](=O)[O-])cc3c(=O)n2-c2ccccc2F)CC1 | -5.84 | -0.518 | -2.39 | < -5.95
